Source: US8877933B2, “Thermodynamically stable form of a tosylate salt” (Bayer Intellectual Property GmbH, priority 2004, dated 2014)

Experiment: Thermodynamic and storage stability of the crystal forms of the compound of the formula (I)
Format: physicochemical
Conditions: for thermodynamic stability of the crystal form: room temperature

SMILES | storage stability (after processing via suspensions) | thermodynamic stability of the crystal form
CNC(=O)c1cc(Oc2ccc(NC(=O)Nc3ccc(Cl)c(C(F)(F)F)c3)cc2)ccn1.Cc1ccc(S(=O)(=O)O)cc1 [polymorph I, 4-{4-[({[4-chloro-3-(trifluoromethyl)phenyl]amino}carbonyl)-amino]phenoxy}-N-methylpyridine-2-carboxamide tosylate in the polymorph I] | storage-stable even after processing via suspensions | thermodynamically stable at room temperature
CNC(=O)c1cc(Oc2ccc(NC(=O)Nc3ccc(Cl)c(C(F)(F)F)c3)cc2)ccn1.Cc1ccc(S(=O)(=O)O)cc1 [polymorph II, 4-{4-[({[4-Chloro-3-(trifluoromethyl)phenyl]amino}carbonyl)amino]phenoxy}-N-methylpyridine-2-carboxamide tosylate in the polymorph II] | – | metastable
